The source of these data is PubChem BioAssay AID1117319 (Southern Research Institute, 2015).

Records with an inconclusive call do not appear.

The experiment concerns the target Virion infectivity factor (Human immunodeficiency virus type 1 group M subtype B (isolate BH10)) + Virion infectivity factor (Human immunodeficiency virus type 1 group M subtype B (isolate BRU/LAI)) + Virion infectivity factor (Human immunodeficiency virus type 1 group M subtype B (isolate PCV12)) + Virion infectivity factor (Human immunodeficiency virus type 1 group M subtype B (isolate HXB2)) + DNA dC->dU-editing enzyme APOBEC-3G (Homo sapiens) (UniProt P69720+P69721+P69722+P69723+Q9HC16). As to the kind of experiment: HIV-1 Vif–A3G interaction blockers – biochemical, TR-FRET, GST-Vif 1-94, biotin-A3G peptide, dose response retest, primary screen (AID 1117319).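 Note: Vif residues 1-94 fused to GST binding biotinylated APOBEC3G peptide 110-148.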 The note with it: TR-FRET GST-Vif / biotin-A3G peptide binding. On the technique in general: Time-resolved FRET reads energy transfer from a long-lived donor to a nearby acceptor.
Turning to `CCOc1ccc(-c2nnn(CC(=O)c3ccc4c(c3)OCCO4)n2)cc1OCC`, the IC50 (in general, the concentration needed to halve the response being measured) is 29.1 µM.
In the case of `Cc1ccc2c(c1)c1ccc3c(c1n2C)C(=O)C=CC3=O` it was 3.94 µM.
With `CC(=O)N(\C=C/C=C/C=C1\Sc2ccccc2C1=O)c1ccccc1`, the IC50 was 5.47 µM.
In the case of `CC1CCCCN1Cc1ccc(N(C)C)cc1` (stereo not given) it was 66.6 µM.
The same measure for `O=C(O)COc1ccc2c(c1)O/C(=C\c1ccco1)C2=O`: 22.5 µM.
As for `CN(CCO)c1cc(Sc2nc3ccccc3s2)c2nonc2c1[N+](=O)[O-]`, the IC50 is 42.6 µM.
In the case of `N=C1/C(=C\c2ccc(SCc3ccco3)o2)C(=O)N=C2SC=NN12` it was 1.21 µM; in that of `CCn1c(C)nc2cc(C(=O)N/N=C/c3ccc(O)c(O)c3O)ccc21`, 0.52 µM.
The same measure for `COc1ccc(C(=O)n2nc(-c3ccc(Cl)cc3)nc2N)cc1OC`: 70.9 µM.
In the case of `O=c1cc(OCc2ccccc2)cc[nH]1` it was 3.1 µM; in that of `CCC(C)(C)n1nnnc1C(c1ccc2ncccc2c1)N1CCN(c2ccc(O)cc2)CC1` (stereo not given), 4.65 µM; in that of `COc1ccccc1NC(=O)COC(=O)c1cc2c(s1)CCC2`, 17.6 µM.
Take `O=C(CCc1ccc(S(=O)(=O)NCCc2ccccc2)cc1)Nc1ccc2c(c1)OCO2`: the IC50 is 43.5 µM.
The same measure for `CCC(C)NC(=O)Cc1cn(C)c2ccccc12` (stereo not given): 87.5 µM; for `O=C(O)CCCCC1SCC2NC(=O)NC21` (stereo not given): 0.27 µM.
In the case of `CC1(C)CC(=O)C2=C(C1)NCN(Cc1ccc3c(c1)OCO3)C2` it was 91.6 µM; in that of `CN1CCN(C2=C(Cl)C(=O)c3ccccc3C2=O)CC1`, 4.42 µM; in that of `CCOC(=O)C1=C(c2ccccc2)N=c2s/c(=C\c3ccco3)c(=O)n2C1c1cccs1` (stereo not given), 3.76 µM.
The same measure for `CCN(CC)Cc1cc(Nc2c3ccccc3nc3c4ccccc4n(C)c23)cc(CN(CC)CC)c1O`: 10.9 µM; for `COc1cccc(C2C(C#N)=C(N)OC3=C2C(=O)CC(c2ccco2)C3)c1OCc1ccc(F)cc1` (stereo not given): 7.82 µM; for `CCOC(=O)N1CC=C2C(C#N)=C(N)C(C#N)(C#N)[C@H](c3cccs3)[C@H]2C1`: 4.68 µM.
Regarding `O=C1NC(=O)C(=Cc2ccc(SC3CCCCC3)o2)C(=O)N1`, the IC50 was 29 µM.
Consider `O=C1/C(=C\c2ccco2)NC(=S)N1c1ccccc1`, for which the IC50 is 16.4 µM.
The same measure for `CCC(=Nc1ccc(N)cc1)C1=C(O)C(C(=O)OC)C(C)(C)CC1=O` (stereo not given): 2.01 µM.
The same measure for `COC(=O)C1=C(C)N(Cc2ccccc2)C(=O)/C1=C\c1ccco1`: 11.2 µM; for `COc1ccc2[nH]c3c4c(ccc3c2c1)C(=O)C=CC4=O`: 1.42 µM.
The same measure for `O=C1NC(=O)C(=Cc2ccco2)C(=O)N1`: 19.9 µM; for `COc1ccc2c(c1)n([O-])c1c([n+]2=O)CCC1`: 5.16 µM; for `CCC1C/C(=C/c2ccco2)C(=O)/C(=C/c2ccco2)C1` (stereo not given): 2.59 µM.
`Cc1cccc(C)c1NS(=O)(=O)c1c(C)[nH]c(=O)[nH]c1=O`: the half-inhibitory concentration (IC50) is 85.4 µM.
In the case of `COc1ccc2c(c1)C(=O)c1ccccc1CO2` it was 52.2 µM; in that of `NC(=O)c1c(NC(=O)Cc2cccs2)sc2c1CCC2`, 49.5 µM; in that of `Cc1ccc(NC(=O)CN2C(=O)N/C(=C/c3ccco3)C2=O)cc1`, 2 µM.
In the case of `C=C(C)C(=O)Nc1cccc(C2=NOC3(C2)C[C@H](C(N)=O)N(C(=O)COc2ccc(Cl)cc2)C3)c1` (stereo not given in full) it was 1.28 µM; in that of `C=CCN1C(=O)/C(=C\c2ccco2)C(C(=O)OC)=C1C`, 14.1 µM.
The same measure for `O=C(C1CCCO1)N1CCC2(CC1)OCCO2` (stereo not given): 1.39 µM.
For `Cc1cc(/C=C2\C(=O)NC(=O)N(Cc3ccco3)C2=O)c(C)n1-c1ccc(O)cc1`, the IC50 was 5.88 µM.
The same measure for `O=[N+]([O-])c1ccccc1S(=O)(=O)NC1CCCC1`: 12.9 µM; for `COc1ccc(CCNC(=O)/C=C/c2ccco2)cc1`: 37 µM.
With `C[C@H]1c2cccc(O)c2C(O)=C2C(=O)[C@]3(O)C(O)=C(C(N)=O)C(=O)[C@@H](N(C)C)[C@@H]3[C@@H](O)[C@@H]21`, the IC50 is 13.6 µM.
In the case of `CNc1ccccc(-c2ccc3cc4c(cc3n2)OCO4)c1=O` it was 16.5 µM; in that of `Cc1ccc(C2C(C#N)=C(N)Oc3c2oc(CO)cc3=O)o1` (stereo not given), 2.04 µM.
The same measure for `CN1c2ccsc2C(O)=C(C(=S)Nc2ccc(F)c(Cl)c2)S1(=O)=O`: 1.12 µM.
The same measure for `Cc1nn(-c2ccccn2)c2c1C(=O)C(Br)CC2` (stereo not given): 3.41 µM; for `COc1cccc(CNC(=O)CCNS(=O)(=O)c2cccs2)c1`: 1.44 µM.
Consider `CCc1ccc(CC)c(S(=O)(=O)Nc2ccc(C(=O)O)c(O)c2)c1`, for which the IC50 is 35.3 µM.
In the case of `O=C(/C=C/Nc1ccccc1Br)c1ccccn1` it was 41.5 µM; in that of `CCn1c2ccccc2c2cc(NC(=O)c3ccccc3[N+](=O)[O-])ccc21`, 14.7 µM.
For the molecule `Cc1ccc2[nH]c(=O)c(C3C(C#N)=C(N)Oc4c3ccc3cccnc43)cc2c1` (stereo not given), the IC50 is 24.3 µM.
In the case of `Nc1nc(-c2ccco2)c(-c2ccco2)s1` it was 0.83 µM; in that of `NS(=O)(=O)c1ccc(N=Nc2ccc(=O)[nH]c2O)cc1`, 5.22 µM; in that of `COc1ccc2nc(NNC(=O)c3cc(=O)c4ccccc4o3)sc2c1`, 26.8 µM.
Take `CS(=O)(=O)N1CCCC(C(=O)NCCCN2CCC(Cc3ccccc3)CC2)C1` (stereo not given): the IC50 was 84.4 µM.
The same measure for `Cc1onc(-c2ccccc2Cl)c1C(=O)NCc1ccco1`: 1.08 µM; for `O=C(O)c1ccc(-n2cccc2/C=N\NC(=O)c2cc3cc(Br)ccc3o2)cc1`: 6.47 µM.
In the case of `O=c1cc2oc3cc(O)c(O)cc3c(-c3ccccc3O)c-2cc1O` it was 0.84 µM; in that of `O=c1[nH]nc(CNc2ccc(O)cc2)c2ccccc12`, 3.45 µM; in that of `Cc1ccc(OCCSc2nnc(-c3ccncc3)n2C)cc1`, 75.9 µM.
Regarding `O=C(NCc1ccccn1)c1coc(=O)c(Br)c1`, the IC50 was 58.6 µM.
The same measure for `COc1ccc2c3c(cccc13)N(C)N=C2C`: 4.23 µM; for `O=C1CC(c2ccco2)CC(O)=C1C=Nc1cc(Cl)ccc1O` (stereo not given): 4.47 µM; for `Cc1nc2c(=O)[nH]c(=S)[nH]c2[nH]c1=O`: 50.7 µM.
The same measure for `Cc1ccc(NC(=O)CCCCCC2NC(=O)NC2C)cc1` (stereo not given): 0.71 µM; for `COc1cccc(NC(=O)CSc2nnc(-c3ccco3)c(-c3ccco3)n2)c1`: 10.2 µM.
The same measure for `CCCCn1c(O)c(C(CC)=NCCN2CCCCC2)c(=O)[nH]c1=O`: 4.09 µM; for `CC1(OC(=O)CCc2ccccc2)C(=O)C=C2C=C(c3ccsc3)OC=C2C1=O` (stereo not given): 4.73 µM; for `O=C(Cc1ncn[nH]1)NCCc1ccccc1`: 96.9 µM.
Regarding `CN(C)c1ncc(C2=C(Cl)C(=O)C(N3CCCC3)=C(Cl)C2=O)s1`, the IC50 is 0.38 µM.
With `CN1CCC(N(C)C(=O)COc2ccccc2-c2ccccc2)CC1`, the IC50 was 10.8 µM.
In the case of `COc1ccc2nc3ccccc3nc2c1N` it was 6 µM; in that of `CC(=O)N1CCN(c2ccc(NCc3ccc(C)s3)cc2)CC1`, 3.13 µM; in that of `O=C1NC(=O)N(c2ccccc2)C(=O)/C1=C\c1ccc([N+](=O)[O-])s1`, 13.4 µM.
The same measure for `CN(C)S(=O)(=O)c1cccc(NC(=S)N/N=C/c2ccc(O)c(O)c2O)c1`: 1.88 µM; for `O=c1oc2c3c4c(cc2s1)CCCN4CCC3`: 9.54 µM.
In the case of `CC1=C(O)C(=O)C=C2C1=CC=C1C2(C)CCC2(C)C3CC(C)(C(=O)O)CCC3(C)CCC12C` (stereo not given) it was 12.2 µM; in that of `CC1C/C(=C/c2ccco2)C(=O)/C(=C/c2ccco2)C1` (stereo not given), 1.89 µM.
As for `Cc1cccc(NC(=O)CNC(=O)c2cccc(-n3cccc3)c2)c1C`, the IC50 was 12.2 µM.
The same measure for `c1ccc2c(c1)NCC1CCCN21` (stereo not given): 38.1 µM; for `O=C1/C(=C/c2ccco2)SC(=S)N1C1CCS(=O)(=O)C1` (stereo not given): 3.88 µM; for `CN(C)c1ccc(Cc2cc3c(O)ccc(O)c3cc(Cc3ccc(N(C)C)cc3)c2=O)cc1`: 0.87 µM.
The same measure for `CCNC(=O)COC(=O)c1cc(-c2ccco2)nc2ccccc12`: 3.93 µM; for `C(=C\c1ccco1)/C=N/n1cnnc1`: 1.35 µM; for `CC(=O)NN1C(=O)/C(=C/c2ccc(Br)o2)SC1=S`: 11.7 µM.
In the case of `Cc1ccc(/C=c2\sc3nc(-c4cccs4)nn3c2=O)o1` it was 13.2 µM.
For `Cc1ccc(SCCN2C(=O)NC(C)(C)C2=O)cc1`, the IC50 was 7.32 µM.
In the case of `Cc1nccn1CC(=O)N/N=C/c1ccc(O)c(O)c1` it was 23.2 µM; in that of `CC1=C(SCc2ccccc2)C(=O)c2ccccc2C1=O`, 58.1 µM; in that of `Cc1cc(C)cc(Nc2ccc(C(=O)O)cc2N)c1`, 26.1 µM.
In the case of `CCN(CC)c1ccc(C(=C2C=CC(=[N+](CC)CC)C=C2)c2ccccc2)cc1` it was 11.8 µM; in that of `O=[n+]1c2c(n([O-])c3cc(Br)ccc31)CCC2`, 19.4 µM; in that of `CCOc1cccc(=O)c2c(C)oc(C)c12`, 6.16 µM.
The same measure for `Oc1cc2c(cc1O)C1c3ccc(O)c(O)c3OCC1(O)C2` (stereo not given): 0.46 µM; for `COc1ccc2nc(-c3ccco3)c(-c3ccco3)nc2c1`: 0.35 µM; for `CCc1cccc(NC(=O)CCCCCC2NC(=O)NC2C)c1` (stereo not given): 0.47 µM.
For the molecule `O=C(c1cc2n(n1)C(C(F)(F)F)CC(c1ccco1)N2)N1CCc2ccccc2C1` (stereo not given), the IC50 was 33.2 µM.
`O=[N+]([O-])c1cc2oc3c(c2c(C=NCc2ccncc2)c1O)CCCC3`: the IC50 is 4.52 µM.
In the case of `COc1ccc(OC)c(NC(=O)CCN2CCC(C)CC2)c1` it was 25.4 µM; in that of `O=C1C=Cc2ccccc2C1=O`, 10.6 µM; in that of `O=C1C(Cl)=C(Nc2ccc3cn[nH]c3c2)C(=O)c2ccccc21`, 3.58 µM.
The same measure for `CCN(C(=O)c1coc(=O)c(Br)c1)c1ccc2c(c1)OCO2`: 1.06 µM.
